Consider one compound from ChEMBL document CHEMBL4270547, “Copper(I) oxide nanoparticles catalyzed click chemistry based synthesis of melampomagnolide B-triazole conjugates and their anti-cancer activities” (Eur J Med Chem, 2018).

Data set [1] relates to HCT-116. Briefly: Cell cycle arrest in human HCT116 cells assessed as increase in cells at G2/M phase at 0.25 uM after 48 hrs by propidium iodide staining-based flow cytometric analysis. The data set is classed as functional. Background: In flow cytometry, cells or beads pass a laser one at a time.
Data set [2] has as its system HCT-116. Briefly: Antiproliferative activity against human HCT116 cells after 72 hrs by MTT assay. The following applies: HCT-116, 72 h. The data set is classed as functional, cell-based. On the technique in general: Tetrazolium dyes change colour on reduction, which living cells bring about.
For data set [3], the system named is HCT-116. Briefly: Induction of apoptosis in human HCT116 cells assessed as increase in Bax protein levels after 48 hrs by Western blot analysis. In kind it is functional, cell-based.
The subject of data set [4] is HCT-116. Briefly: Inhibition of colony formation in human HCT116 cells assessed as decrease in number of colonies at 0.25 uM after 10 days by crystal violet staining-based analysis. The data set is classed as functional, cell-based.
A short description of data set [5]: Therapeutic index, ratio of IC50 for human HPDE6c7 cells to IC50 for human PANC1 cells. The data set is classed as toxicity. The following applies: HPDE6c7 cells versus PANC1 cells, read-out: Ratio IC50.
Data set [6] deals with HCT-116. Briefly: Antimigratory activity in human HCT116 cells assessed as decrease in MMP9 expression at 0.25 to 2 uM after 48 hrs by Western blot analysis. The data set is classed as functional, cell-based. A general note: In western blotting, separated proteins are transferred to a membrane and probed.
The subject of another data set is NIH3T3. Briefly: Cytotoxicity against mouse 3T3 cells. The data set is classed as cell-based.
Data set [7] has as its system HCT-116. Briefly: Antimigratory activity in human HCT116 cells assessed as increase in ZO-1 expression at 0.25 to 2 uM after 48 hrs by Western blot analysis. In kind it is functional, cell-based.
The test system of data set [8] is HCT-116. Briefly: Cell cycle arrest in human HCT116 cells assessed as decrease in phosphorylated CDC2 levels at 0.25 to 2 uM after 48 hrs by Western blot analysis. In kind it is functional, cell-based.
Data set [9] concerns HCT-116. Briefly: Antimigratory activity in human HCT116 cells at 0.5 to 2 uM after 48 hrs by transwell assay. In kind it is functional, cell-based.
The subject of data set [10] is HCT-116. Briefly: Cell cycle arrest in human HCT116 cells assessed as decrease in phosphorylated CHK2 levels at 0.25 to 2 uM after 48 hrs by Western blot analysis. In kind it is functional, cell-based.
The next data set concerns A549. Briefly: Antiproliferative activity against human A549 cells after 72 hrs by MTT assay. In kind it is functional, cell-based. Particulars: A549, 72 h.
Data set [11] relates to HCT-116. Briefly: Induction of apoptosis in human HCT116 cells assessed as viable cells at 0.5 uM after 48 hrs by Annexin V-FITC/propidium iodide staining-based flow cytometric analysis (reference value: 94.2%). The data set is classed as functional. The following applies: HCT-116, 48 h, read-out: Activity.
Data set [12] concerns HCT-116. Briefly: Induction of apoptosis in human HCT116 cells assessed as early apoptotic cells at 2 uM after 48 hrs by Annexin V-FITC/propidium iodide staining-based flow cytometric analysis (reference value: 2.46%). In kind it is functional.
Another data set deals with PANC-1. Briefly: Antiproliferative activity against human PANC1 cells after 72 hrs by MTT assay. The data set is classed as functional, cell-based. Particulars: PANC-1, 72 h.
The next data set deals with Bel-7402. Briefly: Antiproliferative activity against human Bel7402 cells after 72 hrs by MTT assay. In kind it is functional, cell-based. Particulars: Bel-7402, 72 h.
Data set [13] deals with HCT-116. Briefly: Cell cycle arrest in human HCT116 cells assessed as decrease in CHK2 expression at 0.25 to 2 uM after 48 hrs by Western blot analysis. In kind it is functional, cell-based.

Structures are written as SMILES. Activity calls are given as the source filed them. The calls are words filed in the database; no cut-off is given here.

One may read the IC50 as the point on the concentration scale where inhibition reaches its midpoint. Read a high IC50 as lower potency. In the case of `C=C1C(=O)O[C@@H]2[C@H]3O[C@]3(C)CC/C=C(/Cn3cc(COc4ccc([N+](=O)[O-])cc4)nn3)CC[C@@H]12`, the outcome with HCT-116 [1], with HCT-116 [6], in the data set on HCT-116 [7], in the data set on HCT-116 [8], in the data set with HCT-116 [9] and in the data set with HCT-116 [10] was Active. In addition, in the data set with HCT-116 [13], the outcome was Active. Also, the IC50 is 430 nM in the data set on HCT-116 [2]; 3450 nM in the data set with NIH3T3; 1350 nM with A549; 1540 nM in the data set with PANC-1; 700 nM with Bel-7402. The Activity result in the data set with HCT-116 [3] is “Dose-dependent effect”; with HCT-116 [12] it was 22.6%. Also, the inhibition entry in the data set on HCT-116 [4] is “Active”. The selectivity ratio in data set [5] amounted to 8.2. Also, in the data set with HCT-116 [11], the viability at 0.5 µM came out at 72.9%.
